This is an account of results in patent US20260207483A1, “PHARMACEUTICAL CO[…] FOR THE TREATMENT OF OPHTHALMIC CONDITIONS” (Adtech Pharma, Inc., priority 2022, published 2026).

Data set [1] is described as follows: Solubility of nabilone in sesame oil. In kind it is physicochemical. Particulars: 5% w/w of nabilone in sesame oil; for Nabilone recovered from oil phase (w/w in mg/mL): 250 mg/g added. An excerpt: It is also challenging to solubilize nabilone in pharmaceutically acceptable oils, even at elevated temperatures.
Data set [2] can be described thus: Solubility of nabilone in water and common solvents (USP classification). In kind it is physicochemical. From the text: Nabilone is difficult to solubilize in most solvents such that preparing a liquid composition comprising nabilone is very challenging. […] These solvents are not suitable for use in human pharmaceutical formulations.

On to `CCCCCCC(C)(C)c1cc(O)c2c(c1)OC(C)(C)C1CCC(=O)CC21` (centres unmarked) [Nabilone], for which the “Observation After Centrifuge (14000 rpm, 10 minutes)” value in data set [1] (not heated) and in data set [1] (heated to 90° C. for 3 hours) was “Clear solution” each time. Further, the “Observation Before Centrifuge” value in data set [1] (not heated) and in data set [1] (heated to 90° C. for 3 hours) was “Turbid” in each case. Also, the “Nabilone recovered from oil phase (w/w in mg/mL)” value in data set [1] (not heated) stood at 3.9 mg/mL; in data set [1] (heated to 90° C. for 3 hours) it was 6.3 mg/mL. Further, the “USP Classification of solubility” value in data set [2] (1,4-Dioxane), in data set [2] (2-Methyltetrahydrofuran), in data set [2] (Acetone), in data set [2] (Dichloromethane), in data set [2] (Dimethoxyethane) and in data set [2] (Dimethyl sulfoxide) was “Freely Soluble” in each case. Further, the “USP Classification of solubility” value in data set [2] (Dimethylformamide), in data set [2] (Methyl ethyl ketone), in data set [2] (Tetrahydrofuran) and in data set [2] (p-Xylene) was “Freely Soluble” throughout. The “Solubility in water (USP classification)” value in data set [2] (water at any pH) is given as “insoluble”.
